According to PubChem BioAssay (NCI):
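Compound exposure: 48 hours, 5 concentrations, 96-well plates. Here, GI50 denotes the concentration required for 50% inhibition of growth. TGI denotes the concentration required for complete inhibition of growth.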

How the values were obtained:
Test in all cases: NCI tumour cell line growth inhibition, 48 h
[1] = tested on: UO-31 renal
[2] = tested on: MDA-N
[3] = tested on: HCT-15 colon
[4] = tested on: HL-60(TB) leukemia
[5] = tested on: U251 CNS
[6] = tested on: SK-MEL-2 melanoma
[7] = tested on: SNB-19 CNS
[8] = tested on: EKVX NSCLC
[9] = tested on: RXF 393 renal
[10] = tested on: MALME-3M melanoma

Compound | GI50 [1] [pM] | TGI [1] [µM] | GI50 [2] [µM] | TGI [2] [µM] | GI50 [3] [µM] | GI50 [4] [pM] | TGI [4] [µM] | TGI [5] [µM] | TGI [6] [µM] | TGI [7] [µM] | TGI [8] [µM] | TGI [9] [µM] | TGI [3] [µM] | TGI [10] [µM]
COc1cc2c(cc1O)CCN[C@@]21CS[C@H]2c3c(OC(C)=O)c(C)c4c(c3C(COC1=O)N1C2C2c3c(cc(C)c(OC)c3O)CC([C@@H]1O)N2C)OCO4 (stereo partly specified) | < 1 | < 1e-06 | 0.00247 | 0.0108 | 0.00282 | < 1 | < 1e-06 |  |  |  |  |  |  | 
C#CCCCCC#CC1CCCC1C1=CC(=O)c2ccccc21 (stereo unspecified) |  | 21.3 |  |  |  |  | 3.93 | 16.9 | 24.8 | 28.8 | 28 | 18.4 | 19.9 | 20.1
CN(C)CCNc1ccc2nnn3c4ccc(Cl)cc4c(=O)c1c23 |  | 9.41 |  | 16.9 |  |  | 19.9 | 6.72 | 16.8 | 26.7 | 22.2 | 13.1 | 14.8 | 17
COc1cc2c(cc1OC)C(C1(O)CCCCC1)NCC2 (stereo unspecified) |  | > 100 |  |  |  |  | > 100 | > 100 | > 100 |  | > 100 | > 100 | > 100 | > 100
C[n+]1ccccc1/C=C/c1ccc2c(c1)OCO2 |  |  |  | > 10 |  |  | > 10 | > 10 | > 10 | > 10 | > 10 | > 10 | > 10 | > 10
N=c1nc(N)nc(N)n1-c1ccc(S(N)(=O)=O)cc1 |  | > 100 |  | > 100 |  |  | > 100 | > 100 | > 100 | > 100 | > 100 | > 100 | > 100 | > 100
CCCNCC(O)/C=C/[Si](C)(C)C (stereo unspecified) (tested in a mixture with another compound) |  | > 100 |  |  |  |  | > 100 | > 100 | > 100 | > 100 | > 100 | > 100 | > 100 | > 100
O=C(N/N=C/c1cc(Br)cc(Br)c1[O-])c1ccccc1O.O=C(N/N=C/c1cc(Br)cc(Br)c1[O-])c1ccccc1O.[Cl-].[Fe+3] |  | 20.7 |  |  |  |  | 6.54 | 4.91 | 5.43 | 21.3 | 27.8 | 6.39 | 3.84 | 
Oc1ccc2ccccc2c1N=Nc1ccc(N=Nc2ccccc2)cc1 |  | > 100 |  | > 100 |  |  | 12 | > 100 | > 100 | > 100 | > 100 | > 100 | > 100 | > 100
Cc1c(Cl)c(S(N)(=O)=O)cc(S(N)(=O)=O)c1NC(=O)c1ccc(Cl)cc1 |  | > 100 |  | > 100 |  |  | > 100 | > 100 |  | > 100 |  | > 100 | > 100 | > 100
CCCCCCc1ccc(O)cc1O |  | 86.7 |  |  |  |  | > 100 | > 100 | 64 | > 100 | > 100 | > 100 | > 100 | > 100
C/C=C1/CN2CC[C@@H]3c4ccccc4N4[C@H](C(=O)OC)[C@H]1C[C@H]2[C@]34/C=C/C1=COC[C@@H]2[C@H]1C[C@H]1c3c(c4ccccc4n3C)C[C@@H]2N1C |  | 7.98 |  | 5.41 |  |  |  | 7.65 | 8.14 | 7.39 | 6.17 | 7.9 | 7.83 | 8.5
